Like-named read-outs stand apart in the source and are kept apart here.
Tests used:
[1] = stability in CDCl3; type: physicochemical; details: CDCl3, 25° C.
[2] = tested on: IL-2 promoter luciferase reporter in stimulated Jurkat T cells; test: IL-2 reporter gene assay (transfected Jurkat cells); type: cell-based
Method: The ability of these derivatives to inhibit T cell receptor-mediated IL-2 production was analyzed using an IL-2 reporter gene assay. In this assay, a plasmid encoding a reporter gene (luciferase) under the control of the IL-2 promoter was first introduced into Jurkat T cells by transfection. The transfected Jurkat T cells are then stimulated with two pharmacological agents, phorbol myristyl acetate (PMA), which activates protein kinase C, and inonmycin, which allows calcium ion to enter T cells to activate calmodulin and calcineurin. Together, PMA and ionomycin recapitulate T cell receptor signaling, leading to the activation of the luciferase reporter gene by activating the IL-2 promoter. The ability of PatA and its analogs to block T cell receptor-mediated IL-2 expression was measured by their effects on this reporter gene assay. Su, B., et a., Cell 1994, 77, 727-736.

[3] = tested on: cancer cell lines; test: cell proliferation assay ([3H]-thymidine incorporation), cancer cell lines; type: cell-based
Method: Cell Proliferation Assay. 1×10^5 of indicated cells in each well of a 96-well plate were treated with indicated compounds for 24 h followed by addition of 0.11 μCi of [^3H]-thymidine (6.7 Ci/mmol) per well for 6 h, followed by harvesting to GF/C filtermats using a cell harvester. Filtermats were air-dried and scintillation counted. IC50s were determined from quadruplicate data readings and curve-fitting analysis.

[4] = tested on: RNA synthesis in HeLa S3 cells; test: metabolic labelling, RNA synthesis ([3H]-uridine); type: cell-based
Method: (§1) Metabolic Labelling. About 5000 HeLa S3 cells per well in 96-well plates were cultured overnight in duplicate. One set of plates were washed twice with, then incubated for 20 min in Met and Cys free medium, then exchanged for labeling medium (RPMI 1640 with 10% FBS dialyzed in PBS overnight, and 0.15 mCi/ml [^35S]-Met and [^35S]-Cys) with indicated compounds and final volume of 100 μl per well. After 1 h or 3 h incubation, and two washes with ice-cold PBS, cells were lysed in RIPA buffer, under agitation for 30 min at 4° C. 5 μl of lysate from each well was combined with 25 μl of 1 mg/ml BSA, and added to 96 well plates, followed by addition of 150 μl of 5% TCA in ethanol and incubated at 4° C. for 30 min. Filtration was performed on a vacuum manifold as per manufacturer's instructions with 2 washes of 5% TCA in ethanol, then twice with 100% ethanol. After air-drying, scintillation counting was performed. For the second set, replacement media contained […] [^3H]-uridine and indicated compound, and incubated for 1 or 3 h. Remaining procedure was identical to cell proliferation assay.

[5] = target: T1, eIF4A (Homo sapiens, UniProt P60842); test: B-PatA streptavidin pull-down competition; type: binding; details: RKO cell lysate, pre-incubation with competitor
T1 construct: Cell lysates from RKO cells were prepared as previously described; endogenous in cells; host or cells: RKO cell lysate
T1 sequence (P60842 2-406): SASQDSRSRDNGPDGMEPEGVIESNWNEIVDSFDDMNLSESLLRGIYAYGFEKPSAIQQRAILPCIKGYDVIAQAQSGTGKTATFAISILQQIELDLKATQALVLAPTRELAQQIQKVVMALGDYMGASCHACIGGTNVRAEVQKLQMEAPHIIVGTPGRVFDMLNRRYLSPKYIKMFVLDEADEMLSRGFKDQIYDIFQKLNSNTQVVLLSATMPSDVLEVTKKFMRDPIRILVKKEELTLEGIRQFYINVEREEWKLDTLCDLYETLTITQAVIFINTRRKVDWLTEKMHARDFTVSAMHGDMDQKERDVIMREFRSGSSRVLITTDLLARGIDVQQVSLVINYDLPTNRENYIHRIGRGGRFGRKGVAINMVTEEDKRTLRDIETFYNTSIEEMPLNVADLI
Method: Streptavidin-agarose Pulldown with B-PatA. Cell lysates from RKO cells were prepared as previously described (Griffith et al., 1997). HeLa lysates were prepared in buffer: 10 mM HEPES-OH, pH 7.6, 10 mM KC2H3O2, and 0.5 mM MgC2H3O2. RRL and WGE were diluted about 12 fold using HeLa lysate buffer. All pulldowns included protease inhibitors. Streptavidin-beads were pre-incubated with 10 mg/ml BSA in buffer for 1 h at 4° C. with mixing. Equal aliquots of lysate (200 μl) were incubated with DMSO or PatA analog for 1 h at 4° C. with mixing, followed by addition of DMSO or B-PatA and incubation for 2 h. Each sample was combined with equal amounts of pre-blocked beads and incubated for 1 h at 4° C. Beads were washed with 3 ml of buffer, boiled in SDS-PAGE loading buffer and analyzed by SDS-PAGE and silver-staining or immunoblotting.

[6] = target: T2, eIF4A-eIF4B (Homo sapiens, UniProt P60842); test: 6XHis-eIF4AI pulldown, eIF4A-eIF4B interaction; type: binding; details: HeLa lysate; PatA at 100 μM
T2 construct: The entire ORF of human eIF4AI was ligated in-frame into the BamHI and HindIII sites of the pET-28a expression vector; made in house; host or cells: bait from E. coli BL21(DE3); eIF4B endogenous in HeLa lysate
T2 sequence (P60842 whole entry): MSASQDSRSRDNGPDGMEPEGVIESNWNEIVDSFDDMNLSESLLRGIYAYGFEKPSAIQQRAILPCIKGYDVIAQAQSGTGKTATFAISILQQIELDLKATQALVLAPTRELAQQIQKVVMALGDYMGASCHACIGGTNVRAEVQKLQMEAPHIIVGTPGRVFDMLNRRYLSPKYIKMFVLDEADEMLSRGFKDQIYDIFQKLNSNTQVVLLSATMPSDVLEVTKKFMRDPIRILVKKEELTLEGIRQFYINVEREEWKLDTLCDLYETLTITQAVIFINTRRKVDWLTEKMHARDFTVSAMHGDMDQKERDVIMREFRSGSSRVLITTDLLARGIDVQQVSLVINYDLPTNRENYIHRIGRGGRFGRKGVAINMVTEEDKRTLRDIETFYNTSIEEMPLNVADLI
T2 sequence (P23588 whole entry partner): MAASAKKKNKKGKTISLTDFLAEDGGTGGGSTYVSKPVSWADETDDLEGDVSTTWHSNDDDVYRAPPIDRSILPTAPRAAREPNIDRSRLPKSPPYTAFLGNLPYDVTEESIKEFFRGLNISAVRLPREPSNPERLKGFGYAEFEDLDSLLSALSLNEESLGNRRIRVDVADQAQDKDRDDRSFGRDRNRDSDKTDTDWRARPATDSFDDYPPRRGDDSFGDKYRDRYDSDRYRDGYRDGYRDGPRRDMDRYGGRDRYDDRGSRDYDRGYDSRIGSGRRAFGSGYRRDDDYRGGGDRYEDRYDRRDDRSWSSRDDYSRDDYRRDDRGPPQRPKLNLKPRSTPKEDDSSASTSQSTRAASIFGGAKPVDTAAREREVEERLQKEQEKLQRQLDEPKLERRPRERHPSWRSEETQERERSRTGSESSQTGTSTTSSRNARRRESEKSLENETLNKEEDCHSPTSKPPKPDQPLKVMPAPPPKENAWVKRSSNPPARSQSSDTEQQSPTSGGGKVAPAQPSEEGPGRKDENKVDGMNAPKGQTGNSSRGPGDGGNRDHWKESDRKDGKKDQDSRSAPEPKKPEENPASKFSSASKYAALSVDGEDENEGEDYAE
Method: 6XHis-eIF4AI pulldown, Co-immunoprecipitation, and m^7GTP-Sepharose pulldown. For 6XHis-eIF4AI pulldowns, HeLa lysates were prepared as described above. Equal aliquots (200 μl) of lysate were incubated with PatA analogs or DMSO and 8.5 μg of 6XHis-eIF4AI overnight at 4° C., followed by addition of Ni-NTA resin for 1 h, then resin was washed with 3 ml buffer, and boiled in SDS-PAGE loading buffer followed by SDS-PAGE and immunoblotting with indicated antibodies. For co-immunoprecipitation, 293T cells with vector control or pcDNA3-Flag-4B lysates were prepared by pipetting in: 20 mM HEPES, pH 7.4, 100 mM KCl, 0.5% Triton-X-100, 20% glycerol, protease inhibitor and 15 μg/ml RNAse A followed by clearing at 13 000 g (10 min). For DMDA-PatA treated samples, lysis and wash buffers also contained 100 nM DMDA-PatA. Anti-Flag antibody was incubated overnight at 4° C., followed by addition of Protein G beads for 4 h. Beads were washed 3× with 500 μl buffer, boiled in SDS-PAGE loading buffer followed by SDS-PAGE and immunoblotting. m^7GTP-Sepharose was performed as described (Yoder-Hill et al., 1993) with modifications. 30 μl RRL was incubated with DMSO or DMDA-PatA at room temperature for 30 min, diluted with buffer supplemented with DMSO or DMDA-PatA (20 nM), then combined with 50 μl beads for 3 h at 4° C. followed by 4 washes with 1 ml buffer. […]

[7] = tested on: protein synthesis in HeLa S3 cells; test: metabolic labelling, protein synthesis ([35S]-methionine/cysteine); type: cell-based
Method: as §1

Question: Which “decomposes in CDCl3” value [1] does the source give for `CC(/C=C/C(C)=C/[C@@H]1Cc2nc(cs2)[C@@H](C)C[C@@H](N)CC(=O)O[C@@H](C)C/C(C)=C/C=C\C(=O)O1)=C\CN(C)C` [Pat A (1), Pateamine A] here?
Answer: The value was less than 10 min.

Question: And the IC50 ([2]; stimulated Jurkat T cells, listed as native pateamine A, read-out: IC50, inhibition of IL-2 production / IL-2 reporter gene)?
Answer: The IC50 was 4.01 ± 0.94 nM.

Question: What about the IC50 ([2]; stimulated Jurkat T cells, read-out: IC50, inhibition of IL-2 production / IL-2 reporter gene) of the same molecule?
Answer: The IC50 was 4 ± 0.9 nM.

Question: What about the IC50 ([3]; all cancer cell lines (FIG. 12), read-out: IC50, inhibition of proliferation) of the same molecule?
Answer: The IC50 was less than 1 nM.

Question: And the “effect on RNA synthesis” value [4]?
Answer: Its value is “inhibitory effect on RNA synthesis”.

Question: And the “competition with B-PatA for eIF4A binding” value [5]?
Answer: The value was “effectively competed away”.

Question: What about the “effect on eIF4A-eIF4B interaction” value [6] of the same molecule?
Answer: The value was “increase in amount of eIF4B observed”.

Question: What about the IC50 ([7]; 1 h treatment, read-out: IC50, inhibition of protein synthesis) of the same molecule?
Answer: The IC50 was 3.3 nM.

Question: Which “stable in CDCl3” value [1] does the source give for `CC(/C=C/C(C)=C/[C@@H]1Cc2nc(cs2)CCCCC(=O)O[C@@H](C)C/C(C)=C/C=C\C(=O)O1)=C\CN(C)C` [compound 3, desmethyl, desamino-pateamine A] here?
Answer: Its value is 3-4 weeks.

Question: What about the IC50 ([2]; stimulated Jurkat T cells, listed as DMDA PatA 3, read-out: IC50, inhibition of IL-2 production / IL-2 reporter gene) of the same molecule?
Answer: The IC50 was 0.8 ± 0.3 nM.

Question: What about the IC50 ([2]; stimulated Jurkat T cells, listed as DMDA PatA, read-out: IC50, inhibition of IL-2 production / IL-2 reporter gene) of the same molecule?
Answer: The IC50 was 0.81 ± 0.27 nM.

Question: And the IC50 ([2]; transfected Jurkat cells, same population of Jurkat T cells, read-out: IC50)?
Answer: Its IC50 is 0.808 nM.

Question: What about the “activity in cell proliferation assays” value [3] of the same molecule?
Answer: The value was “retain most of the activity of PatA”.

Question: And the “effect on RNA synthesis” value [4]?
Answer: Its value is “secondary effect on RNA synthesis”.

Question: And the “competition with B-PatA for eIF4A binding” value [5]?
Answer: Its value is “competitive”.

Question: What about the “effect on eIF4A-eIF4B interaction” value [6] of the same molecule?
Answer: Its value is “enhancement of eIF4A-eIF4B interaction”.

Question: And the “effect on protein synthesis” value [7]?
Answer: Its value is “inhibited protein synthesis”.
